“Also recorded” adds a separate entry of the source.
Legend:
LplA [1] = target: T1, LplA (Escherichia coli, UniProt P32099); test: HPLC analysis of LplA modification of HP1-peptide fusions; kcat of azide 7 ligation to LAP; assay type: biochemical, E. coli; details: C-terminal fusion to HP1 versus peptide 8
Experimental: To compare the conversion rates for different peptide substrates, reactions were assembled as follows: 1.5 μM LplA, 150 μM HP1-peptide fusion, 750 μM azide 7, 1 mM ATP, and 2 mM magnesium acetate in 25 mM sodium phosphate pH 7.0. Reactions were incubated at 30° C. for 2 hours, then quenched with 50 mM EDTA (final concentration), and subsequently analyzed by C18 reverse-phase HPLC using a gradient of 30-45% acetonitrile in water with 0.1% trifluoroacetic acid over 20 minutes with a 1 mL/minute flow rate. Retention times for unmodified HP1-peptide fusions ranged from 8-12 minutes, and shifted to 16-21 minutes after ligation to azide 7. Measurements were performed in triplicate. The extent of modification was calculated from the ratio of HP1-peptide-azide 7 peak area to the sum of (HP1-peptide+HP1-peptide-azide 7) peak areas.

[2] = test system: mitochondrial respiration; test: Effect of azide 7 on mitochondrial respiration; assay type: cell-based; details: 24-hour exposure, concentrations less than 750 μM
E. coli LplA = target: T2, E. coli LplA (Escherichia coli, UniProt P32099); test: Measurement of LplA-probe ligation kinetics (HPLC); assay type: biochemical
T2 sequence (P32099 2-338 limits assumed): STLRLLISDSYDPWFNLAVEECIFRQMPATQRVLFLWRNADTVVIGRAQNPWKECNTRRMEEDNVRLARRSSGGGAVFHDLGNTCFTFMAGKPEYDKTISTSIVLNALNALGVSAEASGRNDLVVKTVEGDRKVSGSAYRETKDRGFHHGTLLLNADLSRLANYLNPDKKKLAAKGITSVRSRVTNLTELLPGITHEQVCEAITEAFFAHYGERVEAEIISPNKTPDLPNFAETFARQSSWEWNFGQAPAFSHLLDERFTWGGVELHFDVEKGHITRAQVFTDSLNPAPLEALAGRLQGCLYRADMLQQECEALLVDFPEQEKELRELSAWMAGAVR
Experimental: To measure the kcat for LplA ligation of lipoic acid to E2p, 50 nM LplA was combined with 200 μM E2p, 750 μM lipoic acid, […], and 2 mM magnesium acetate in 25 mM sodium phosphate pH 7.0. The reaction was initiated with addition of 1 mM ATP to the pre-warmed (30° C.) mixture. The reaction was incubated at 30° C., and 90 μL aliquots were removed every 5 minutes and quenched with 50 mM EDTA (final concentration). Samples were analyzed by C18 reverse-phase HPLC as described in the “Methods” section. Measurements were performed in triplicate. A calibration curve was obtained that correlated the ratio of integrated HPLC peak areas (E2p:E2p-probe) to the actual protein ratio, in order to compensate for differences in the extinction coefficients of E2p and lipoylated E2p. The amount of product obtained at each time point was plotted against time, to obtain the Vmax of the reaction. From this, the kcat value was obtained using the equation Vmax=kcat [E]total.
90 μL aliquots were removed from the 30° C. reactions at 5 minutes intervals, up to 30 minutes, and quenched with 50 mM EDTA (final concentration). Samples were analyzed by HPLC as above. The amount of product obtained at each time point was plotted against time, to obtain the initial velocity for each concentration of azide 7. […] From the Vmax value, kcat was calculated using the equation Vmax=kcat [E]total.

LplA [3] = target: T1, LplA; test: In vitro LplA activity assay: probe ligation onto E2p (HPLC); assay type: biochemical, E. coli; details: 350 μM probe, 200 μM E2p, 30 minutes
Experimental: LplA reactions contained 2 μM LplA, 200 μM E2p, 350 μM probe, 1 mM ATP, 2 mM magnesium acetate, and 25 mM sodium phosphate pH 7.0. Reactions were incubated at 30° C. for 30 minutes, and then quenched with EDTA (final concentration 50 mM). Conversion to product was determined by HPLC on a C18 reverse-phase column with a 40-57% gradient of acetonitrile in water with 0.1% trifluoroacetic acid over 20 minutes (flow rate 1.0 mL/minute). […] Percent conversion to product was calculated from the ratio of the E2p-probe peak area to the sum of (E2p+E2p-probe) peak areas. All measurements were performed in triplicate.

## peptide 9: peptide 8 fused to the C-terminal end of HP1 (SEQ ID NO: 9) (DEVLVEIETDKAVLEVP)
LplA [1]
  drop of lipoylation rate: 5 fold

## [N-]=[N+]=NCCCCCCCC(=O)O [azide 7, 8-azidooctanoic acid]
[2]
  effect on mitochondrial respiration: no effect
E. coli LplA; ligation to E2p
  Kcat relative to the measured Kcat for lipoic acid ligation: 2.3 fold
LplA [3]
  incorporation / ligation kinetics by LplA: fastest kinetics; also recorded: best kinetics

## O=C(O)CCCC[C@@H]1CCSS1 (racemic) [lipoic acid]
E. coli LplA; 30° C., pH 7.0
  kcat of LplA-catalyzed ligation to E2p: 0.253 ± 0.003 s⁻¹

Source: patent publication US9284541B2, “Methods and compositions for protein labeling using lipoic acid ligases” (Massachusetts Institute of Technology, priority 2007, dated 2016)
